Legend:
[1] = tested on: LS411N xenograft tumors; assay: in vivo anti-tumor activity on LS411N xenograft tumors (BRAF V600E colorectal model); design: species or system BALB/c Nude mice; details: monotherapy PO QD, 20 mpk, 50 mpk or 140 mpk; compared with encorafenib 24 mpk; FIG. 2
Excerpt: (§1) FIG. 1 illustrates a schematic representation of the study design reported in FIG. 2 to and specifies the dosage regime that was used for treating the different cohorts in a colorectal tumour model bearing LS411N xenografts, according to some embodiments. Both models are CRC models and present the BRAF V600E mutation.
FIG. 2 […], or of encorafenib at 24 mpk on LS411N xenograft tumors in BALB/c Nude mice (10 mice/cohort), according to some embodiments. Mice were, for example, treated (QD) until day 43 and the graphs express mean tumour volume [mm3] for the different cohorts.
(§2) FIG. 3 reports in vivo anti-tumor activity of a combination of R07276389 at 140 mpk or of encorafenib at 24 mpk, in each instance with 20 mpk of cetuximab on LS411N xenograft tumors in BALB/c Nude mice (10 mice/cohort), according to some embodiments. Monotherapy controls were, for example, also included and the mice were treated (QD) until day 43 and the graph expresses mean tumour volume [mm3] for the different cohorts.
FIG. 4 reports in vivo anti-tumor activity of a combination of R07276389 at 60 mpk or of encorafenib at 24 mpk, in each instance with 20 mpk of cetuximab on LS411N xenograft tumors in BALB/c Nude mice (10 mice/cohort), according to some embodiments. […]

[2] = tested on: HT29 xenograft tumors; assay: in vivo anti-tumor activity on HT29 xenograft tumors (BRAF V600E colorectal model); design: species or system BALB/c Nude mice; details: monotherapy PO QD, 140 mpk, 60 mpk or 30 mpk; compared with encorafenib 24 mpk; FIG. 6
Excerpt: as §1
FIG. […] Mice were, for example, treated (QD) until day 43 and the graph expresses mean tumour volume [mm3] for the different cohorts.
as §2, with “FIG. 7” for “FIG. 3”, “on HT29” for “on LS411N”
as §2, with “FIG. 8” for “FIG. 3”, “at 60” for “at 140”, “on HT29” for “on LS411N”, “cohorts. […]” for “cohorts.”

Cn1cnc2ccc(Oc3c(F)ccc(NS(=O)(=O)N4CC[C@@H](F)C4)c3C#N)cc2c1=O [Compound R07276389, (3R)-N-[2-cyano-4-fluoro-3-(3-methyl-4-oxo-quinazolin-6-yl)oxy-phenyl]-3-fluoro-pyrrolidine-1-sulfonamide]
tumour growth inhibition [1]: dose-dependent tumour growth inhibition that was significantly higher when compared with encorafenib | tumour growth inhibition [2]: dose-dependent tumour growth inhibition that was significantly higher when compared with encorafenib

— patent US20260207603A1, “COMBINATION THERAPY FOR CANCER TREATMENT” (Hoffmann-La Roche Inc., priority 2022, published 2026)
